Test results taken from patent US20070049593A1 (priority 2004, published 2007).

Target: T1, HCV polymerase (Hepatitis C virus genotype 1b, UniProt P26663)
T1 construct: a region encoding NS5B (J Virol 1991 March, 65(3), 1105-13, 544 amino acids after deletion of 47 amino acids on the C-terminal); 6xHis (C); made in house; host or cells: Escherichia coli
Test: biochemical
Set-up: species or system HCV BK strain
Method in brief: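 Recombinant HCV BK-strain NS5B (C-terminal 47 aa deleted, His6-tagged, E. coli), 0.5 μg/ml, run with 5 μg/ml in vitro-transcribed RNA template (polyU/3′X), ATP/GTP/CTP 50 μM, UTP 2 μM plus [3H]UTP, pH 7.5, 25° C, 90 min. TCA-precipitated RNA counted by scintillation; IC50 from activity with vs without compound.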

T1 sequence (P26663 2420-2963): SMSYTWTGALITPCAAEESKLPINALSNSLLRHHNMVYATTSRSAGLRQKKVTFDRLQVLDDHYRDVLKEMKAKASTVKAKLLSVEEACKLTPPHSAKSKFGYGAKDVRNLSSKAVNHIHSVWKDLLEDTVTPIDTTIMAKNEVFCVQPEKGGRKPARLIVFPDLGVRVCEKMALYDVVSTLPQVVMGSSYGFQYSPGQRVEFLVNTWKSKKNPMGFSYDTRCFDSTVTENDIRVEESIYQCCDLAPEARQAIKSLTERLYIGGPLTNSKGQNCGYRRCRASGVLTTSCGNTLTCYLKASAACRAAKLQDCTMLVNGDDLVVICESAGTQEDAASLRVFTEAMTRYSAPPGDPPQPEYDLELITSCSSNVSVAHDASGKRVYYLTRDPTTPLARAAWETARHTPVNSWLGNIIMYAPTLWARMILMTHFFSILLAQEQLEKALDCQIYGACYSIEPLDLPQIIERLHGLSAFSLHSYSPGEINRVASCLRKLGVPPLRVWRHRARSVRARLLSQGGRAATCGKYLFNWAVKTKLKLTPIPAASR

## COc1ccc2c(c1)OCCn1c-2c(C2CCCCC2)c2ccc(C(=O)NC(C)(C)c3nc4ccccc4[nH]3)cc21 [Example 2-408, N-[1-(1H-benzimidazol-2-yl)-1-methylethyl]-12-cyclohexyl-3-methoxy-6,7-dihydro-5-oxa-7a-azadibenzo[a,e]azulene-9-carboxamide]
  IC50: < 100 nM

## COc1ccc2c(c1)OCCn1c-2c(C2CCCCC2)c2ccc(C(=O)NC3(c4nc5ccc(C(=O)O)cc5[nH]4)CCOCC3)cc21 [Example 2-409, 2-{4-[(12-cyclohexyl-3-methoxy-6,7-dihydro-5-oxa-7a-azadibenzo[a,e]azulene-9-carbonyl)amino]tetrahydropyran-4-yl]-3H-benzimidazole-5-carboxylic acid]
  IC50: < 100 nM

## COc1ccc2c(c1)OCCn1c-2c(C2CCCCC2)c2ccc(C(=O)N[C@@H](Cc3ccc(NC(=O)OCc4ccccc4)cc3)c3csc(C)n3)cc21 [Example 2-410, benzyl (4-[(S)-2-[(12-cyclohexyl-3-methoxy-6,7-dihydro-5-oxa-7a-azadibenzo[a,e]azulene-9-carbonyl)amino]-2-(2-methylthiazol-4-yl)ethyl]phenyl}carbamate]
  IC50: < 100 nM

## COc1ccc2c(c1)OCCn1c-2c(C2CCCCC2)c2ccc(C(=O)NC(C)(C)c3nc4cc(/C=C/C(=O)O)ccc4[nH]3)cc21 [Example 2-411, (E)-3-(2-{1-[(12-cyclohexyl-3-methoxy-6,7-dihydro-5-oxa-7a-azadibenzo[a,e]azulene-9-carbonyl)amino]-1-methylethyl}-1H-benzimidazol-5-yl)acrylic acid]
  IC50: < 100 nM

## COc1ccc2c(c1)OCCn1c-2c(C2CCCCC2)c2ccc(C(=O)NC(C)(C)c3nc4cc(CCC(=O)O)ccc4[nH]3)cc21 [Example 2-412, 3-(2-{1-[(12-cyclohexyl-3-methoxy-6,7-dihydro-5-oxa-7a-azadibenzo[a,e]azulene-9-carbonyl)amino]-1-methylethyl}-1H-benzimidazol-5-yl)propionic acid]
  IC50: < 100 nM

## COc1ccc2c(c1)OCCn1c-2c(C2CCCCC2)c2ccc(C(=O)NC3(c4nc5cc(CO)c(OC)cc5[nH]4)CCC3)cc21 [Example 2-413, N-[1-(5-hydroxymethyl-6-methoxy-1H-benzimidazol-2-yl)cyclobutyl]-12-cyclohexyl-3-methoxy-6,7-dihydro-5-oxa-7a-azadibenzo[a,e]azulene-9-carboxamide]
  IC50: < 100 nM

## COc1ccc2c(c1)OCCn1c-2c(C2CCCCC2)c2ccc(C(=O)N[C@@H](Cc3ccc(N)cc3)c3csc(C)n3)cc21 [Example 2-414, N—[(S)-2-(4-aminophenyl)-1-(2-methylthiazol-4-yl)ethyl]-12-cyclohexyl-3-methoxy-6,7-dihydro-5-oxa-7a-azadibenzo[a,e]azulene-9-carboxamide]
  IC50: < 100 nM

## COC(=O)Nc1ccc(C[C@H](NC(=O)c2ccc3c(C4CCCCC4)c4n(c3c2)CCOc2cc(OC)ccc2-4)c2csc(C)n2)cc1 [Example 2-415, methyl (4-[(S)-2-[(12-cyclohexyl-3-methoxy-6,7-dihydro-5-oxa-7a-azadibenzo[a,e]azulene-9-carbonyl)amino]-2-(2-methylthiazol-4-yl)ethyl]phenyl}carbamate]
  IC50: < 100 nM

## COc1ccc2c(c1)OCCn1c-2c(C2CCCCC2)c2ccc(C(=O)N[C@@H](Cc3ccc(O)cc3)C(=O)NC(C)(C)C(=O)O)cc21 [Example 2-416, 2-[(S)-2-[(12-cyclohexyl-3-methoxy-6,7-dihydro-5-oxa-7a-azadibenzo[a,e]azulene-9-carbonyl)amino]-3-(4-hydroxyphenyl)propionylamino]-2-methylpropionic acid]
  IC50: < 100 nM

## COC(=O)COc1ccc2[nH]cc(C[C@H](NC(=O)c3ccc4c(C5CCCCC5)c5n(c4c3)CCOc3cc(OC)ccc3-5)c3csc(C)n3)c2c1 [Example 2-417, methyl {3-[(S)-2-[(12-cyclohexyl-3-methoxy-6,7-dihydro-5-oxa-7a-azadibenzo[a,e]azulene-9-carbonyl)amino]-2-(2-methylthiazol-4-yl)ethyl]-1H-indol-5-yloxy}acetate]
  IC50: < 100 nM

## COc1ccc2c(c1)OCCn1c-2c(C2CCCCC2)c2ccc(C(=O)NC(C)(C)c3nc4ccc(C(=O)N5CCN(C)CC5)cc4[nH]3)cc21 [Example 2-418, N-(1-methyl-1-[6-(4-methylpiperazine-1-carbonyl)-1H-benzimidazol-2-yl]ethyl}-12-cyclohexyl-3-methoxy-6,7-dihydro-5-oxa-7a-azadibenzo[a,e]azulene-9-carboxamide]
  IC50: < 100 nM

## COc1ccc2c(c1)OCCn1c-2c(C2CCCCC2)c2ccc(C(=O)NC(C)(C)c3nc4ccc(C(=O)N5CCOCC5)cc4[nH]3)cc21 [Example 2-419, N-(1-methyl-1-[6-(morpholine-4-carbonyl)-1H-benzimidazol-2-yl]ethyl}-12-cyclohexyl-3-methoxy-6,7-dihydro-5-oxa-7a-azadibenzo[a,e]azulene-9-carboxamide]
  IC50: < 100 nM

## COc1ccc2c(c1)OCCn1c-2c(C2CCCCC2)c2ccc(C(=O)NC3(c4nc5ccc(OCc6ccccc6)cc5[nH]4)CCC3)cc21 [Example 2-420, N-[1-(6-benzyloxy-1H-benzimidazol-2-yl)cyclobutyl]-12-cyclohexyl-3-methoxy-6,7-dihydro-5-oxa-7a-azadibenzo[a,e]azulene-9-carboxamide]
  IC50: < 100 nM

## COc1ccc2c(c1)OCCn1c-2c(C2CCCCC2)c2ccc(C(=O)N[C@@H](Cc3c[nH]c4ccc(OCCO)cc34)c3csc(C)n3)cc21 [Example 2-421, N—[(S)-2-[5-(2-hydroxyethoxy)-1H-indol-3-yl]-1-(2-methylthiazol-4-yl)ethyl]-12-cyclohexyl-3-methoxy-6,7-dihydro-5-oxa-7a-azadibenzo[a,e]azulene-9-carboxamide]
  IC50: < 100 nM

## COc1ccc2c(c1)OCCn1c-2c(C2CCCCC2)c2ccc(C(=O)NC(C)(C)c3ccc(/C=C/C(=O)O)cc3)cc21 [Example 2-422, (E)-3-(4-{1-[(12-cyclohexyl-3-methoxy-6,7-dihydro-5-oxa-7a-azadibenzo[a,e]azulene-9-carbonyl)amino]-1-methylethyl}phenyl)acrylic acid]
  IC50: < 100 nM

## COc1ccc2c(c1)OCCn1c-2c(C2CCCCC2)c2ccc(C(=O)NC(C)(C)c3ccc(CCC(=O)O)cc3)cc21 [Example 2-423, 3-(4-{1-[(12-cyclohexyl-3-methoxy-6,7-dihydro-5-oxa-7a-azadibenzo[a,e]azulene-9-carbonyl)amino]-1-methylethyl}phenyl)propionic acid]
  IC50: < 100 nM

## COCCCOc1ccc(C[C@H](NC(=O)c2ccc3c(C4CCCCC4)c4n(c3c2)CCOc2cc(OC)ccc2-4)C(=O)OC)cc1 [Example 2-424, methyl (S)-2-[(12-cyclohexyl-3-methoxy-6,7-dihydro-5-oxa-7a-azadibenzo[a,e]azulene-9-carbonyl)amino]-3-[4-(3-methoxypropoxy)phenyl]propionate]
  IC50: < 100 nM

## COc1ccc2c(c1)OCCn1c-2c(C2CCCCC2)c2ccc(C(=O)N[C@@H](Cc3ccc(NC(=O)N(C)C)cc3)C(=O)O)cc21 [Example 2-425, (S)-2-[(12-cyclohexyl-3-methoxy-6,7-dihydro-5-oxa-7a-azadibenzo[a,e]azulene-9-carbonyl)amino]-3-[4-(3,3-dimethylureido)phenyl]propionic acid]
  IC50: < 100 nM
